Earlier results, collected in patent US7390809B2, “Beta-amino heterocyclic dipeptidyl peptidase inhibitors for diabetes” (Merck & Co., Inc., priority 2002, dated 2008).

Key:
DP-IV = target: T1, DP-IV (Homo sapiens, UniProt P27487)
T1 construct: GRF is rapidly degraded in plasma to GRF[3-44]

hematopoiesis = conditions: mouse, cyclophosphamide-induced neutropenia
cardiac allograft = conditions: rats; survival doubled from day 7

T1 sequence (P27487 whole entry): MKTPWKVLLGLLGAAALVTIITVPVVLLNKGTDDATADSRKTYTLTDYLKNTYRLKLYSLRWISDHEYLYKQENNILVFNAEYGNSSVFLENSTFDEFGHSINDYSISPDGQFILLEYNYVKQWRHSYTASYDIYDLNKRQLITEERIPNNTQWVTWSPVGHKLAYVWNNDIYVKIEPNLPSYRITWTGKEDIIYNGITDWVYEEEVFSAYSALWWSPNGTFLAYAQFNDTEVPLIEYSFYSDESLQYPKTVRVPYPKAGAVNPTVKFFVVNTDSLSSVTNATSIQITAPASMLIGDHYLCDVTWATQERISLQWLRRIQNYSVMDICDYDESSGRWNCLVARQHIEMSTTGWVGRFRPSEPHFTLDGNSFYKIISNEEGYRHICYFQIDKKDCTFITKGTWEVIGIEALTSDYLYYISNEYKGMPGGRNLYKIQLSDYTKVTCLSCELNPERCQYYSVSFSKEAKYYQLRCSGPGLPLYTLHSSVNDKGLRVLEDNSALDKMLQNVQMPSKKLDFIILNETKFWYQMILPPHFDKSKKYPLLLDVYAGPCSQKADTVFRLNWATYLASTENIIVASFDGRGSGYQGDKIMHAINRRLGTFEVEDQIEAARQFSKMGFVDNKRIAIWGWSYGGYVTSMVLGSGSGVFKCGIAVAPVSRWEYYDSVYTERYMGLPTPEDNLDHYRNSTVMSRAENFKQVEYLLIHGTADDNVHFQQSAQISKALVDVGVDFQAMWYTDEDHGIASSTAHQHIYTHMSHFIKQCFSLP

In the case of diprotin A, the “degradation of GRF in plasma to GRF[3-44]” value (DP-IV) is listed as “prevented”.
For CC(C)[C@H](N)C(=O)N1CCC[C@H]1B(O)O [Val-Boro-Pro], the effect on hematopoiesis (hematopoiesis) is given as “stimulated hematopoiesis”.
For CC(C)N1CCC(c2ccccc2)(c2ccccc2)CC1 [Prodipine, Pro-Pro-diphenyl-phosphonate], the cardiac allograft survival (cardiac allograft) is listed as 14 day.
